pIC50: −log10 of the molar value.
molecular target: T1, TrkB (Homo sapiens, UniProt Q16620); experiment: Trk B Fluorescence Polarization Kinase Assay; format: biochemical; details: FP assay, 150 uM ATP, 50 nM TrkB; uncertainty ±10%
T1 construct: purchased Upstate 14-507M
Protocol: The compounds of the present invention are also specific inhibitors of TrkB. Selection of preferred compounds of Formula I for use as TrkB inhibitors was performed in the following manner. The TrkB assay utilized the fluorescein-labeled phosphopeptide and the anti-phosphotyrosine antibody included in the Panvera Phospho-Tyrosine Kinase Kit (Green) supplied by Invitrogen. When TrkB phosphorylated poly Glu4Tyr, the fluorescein-labeled phosphopeptide was displaced from the anti-phosphotyrosine antibody by the phosphorylated poly Glu4Tyr, thus decreasing the FP value. The TrkB kinase reaction was incubated at room temperature for 30 minutes under the following conditions: 50 nM TrkB (Upstate, catalog # 14-507M), 20 ug/mL poly Glu4Tyr, 150 uM ATP, 5 mM MgCl2, 1% compound in DMSO. The kinase reaction was stopped with the addition of EDTA. The fluorescein-labeled phosphopeptide and the anti-phosphotyrosine antibody were added and incubated for 30 minutes at room temperature. Data points were an average of triplicate samples. Inhibition and IC50 data analysis were done with GraphPad Prism using a non-linear regression fit with a multiparamater, sigmoidal dose-response (variable slope) equation.

T1 sequence (Q16620 32-822): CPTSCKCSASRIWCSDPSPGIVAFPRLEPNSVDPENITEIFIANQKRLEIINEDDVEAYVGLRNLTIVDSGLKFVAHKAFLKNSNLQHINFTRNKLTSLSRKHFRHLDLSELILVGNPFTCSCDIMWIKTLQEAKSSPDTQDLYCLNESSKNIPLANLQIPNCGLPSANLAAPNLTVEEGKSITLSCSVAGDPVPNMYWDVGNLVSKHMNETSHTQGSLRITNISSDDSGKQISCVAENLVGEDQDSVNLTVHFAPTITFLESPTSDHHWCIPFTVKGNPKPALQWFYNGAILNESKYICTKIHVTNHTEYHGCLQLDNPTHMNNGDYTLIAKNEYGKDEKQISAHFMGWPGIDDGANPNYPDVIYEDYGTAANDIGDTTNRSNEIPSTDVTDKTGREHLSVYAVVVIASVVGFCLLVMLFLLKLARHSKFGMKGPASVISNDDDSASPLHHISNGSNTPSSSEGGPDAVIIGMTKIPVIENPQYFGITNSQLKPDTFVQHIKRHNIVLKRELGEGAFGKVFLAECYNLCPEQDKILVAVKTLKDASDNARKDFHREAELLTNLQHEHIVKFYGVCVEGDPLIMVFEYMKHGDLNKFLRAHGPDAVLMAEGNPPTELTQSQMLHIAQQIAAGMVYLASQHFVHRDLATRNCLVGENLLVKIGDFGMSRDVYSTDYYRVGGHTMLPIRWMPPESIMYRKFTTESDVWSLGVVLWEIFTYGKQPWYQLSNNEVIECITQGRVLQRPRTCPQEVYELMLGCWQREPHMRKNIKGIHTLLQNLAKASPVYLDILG

| SMILES | pIC50 |
| --- | --- |
| CCO/N=C/c1c(N)ncnc1N1CCC(OC(=O)Nc2ccc(OC(C)C)cc2)CC1 [Example 2, (4-Isopropoxy-phenyl)-carbamic acid 1-[6-amino-5-(ethoxyimino-methyl)-pyrimidin-4-yl]-piperidin-4-yl ester] | < 4.38 |
| CC(C)Oc1ccc(NC(=O)OC2CCN(c3ncnc(N)c3/C=N/OCCN3CCOCC3)CC2)cc1 [Example 3, (4-Isopropoxy-phenyl)-carbamic acid 1-{6-amino-5-[(2-morpholin-4-yl-ethoxyimino)-methyl]-pyrimidin-4-yl}-piperidin-4-yl ester] | < 4.38 |
| CO/N=C/c1c(N)ncnc1N1CCC(OC(=O)Nc2ccc(C(C)C)cc2)CC1 [Example 5, (4-Isopropyl-phenyl)-carbamic acid 1-[6-amino-5-(methoxyimino-methyl)-pyrimidin-4-yl]-piperidin-4-yl ester] | 4.62 |
| CO/N=C/c1c(N)ncnc1N1CCC(CC(=O)Nc2ccc(C(C)C)cc2)CC1 [Example 7, 2-{1-[6-Amino-5-(methoxyimino-methyl)-pyrimidin-4-yl]-piperidin-4-yl}-N-(4-isopropyl-phenyl)-acetamide] | 5.67 |
| CO/N=C/c1c(N)ncnc1N1CCC(NC(=O)Nc2ccc(OC(C)C)cc2)C1 (stereo not shown) [Example 8, 1-{1-[6-Amino-5-(methoxyimino-methyl)-pyrimidin-4-yl]-pyrrolidin-3-yl}-3-(4-isopropoxy-phenyl)-urea] | 4.85 |
| CO/N=C/c1c(N)ncnc1N1CCC(NC(=O)Nc2ccc(N3CCCCC3)cc2)C1 (stereo not shown) [Example 9, 1-{1-[6-Amino-5-(methoxyimino-methyl)-pyrimidin-4-yl]-pyrrolidin-3-yl}-3-(4-piperidin-1-yl-phenyl)-urea] | 4.92 |
| CO/N=C/c1c(N)ncnc1N1CCC(NC(=O)Nc2ccc(OC3CCC3)nc2)C1 (stereo not shown) [Example 11, 1-{1-[6-Amino-5-(methoxyimino-methyl)-pyrimidin-4-yl]-pyrrolidin-3-yl}-3-(6-cyclobutoxy-pyridin-3-yl)-urea] | 5.38 |
| CO/N=C/c1c(N)ncnc1N1CCC(NC(=O)Nc2ccc(OC(C)C)cc2)CC1 [Example 12, 1-{1-[6-Amino-5-(methoxyimino-methyl)-pyrimidin-4-yl]-piperidin-4-yl}-3-(4-isopropoxy-phenyl)-urea] | 5.07 |
| CO/N=C/c1c(N)ncnc1N1CCC(NC(=O)Nc2ccc(N3CCCCC3)cc2)CC1 [Example 13, 1-{1-[6-Amino-5-(methoxyimino-methyl)-pyrimidin-4-yl]-piperidin-4-yl}-3-(4-piperidin-1-yl-phenyl)-urea] | 5.54 |
| CO/N=C/c1c(N)ncnc1N1CCC(NC(=O)Nc2ccc(N3CCOCC3)cc2)CC1 [Example 14, 1-{1-[6-Amino-5-(methoxyimino-methyl)-pyrimidin-4-yl]-piperidin-4-yl}-3-(4-morpholin-4-yl-phenyl)-urea] | 4.81 |
| CO/N=C/c1c(N)ncnc1N1CCC(NC(=O)Nc2ccc(OC3CCC3)nc2)CC1 [Example 15, 1-{1-[6-Amino-5-(methoxyimino-methyl)-pyrimidin-4-yl]-piperidin-4-yl}-3-(6-cyclobutoxy-pyridin-3-yl)-urea] | < 4.38 |

Further lines, results first:

| pIC50 | SMILES |
| --- | --- |
| 4.53 | CO/N=C/c1c(N)ncnc1N1CCC(OC(=O)Nc2ccc(OC(C)C)cc2)CC1 [Example 1, (4-Isopropoxy-phenyl)-carbamic acid 1-[6-amino-5-(methoxyimino-methyl)-pyrimidin-4-yl]-piperidin-4-yl ester] |
| < 4.38 | CC(C)Oc1ccc(NC(=O)OC2CCN(c3ncnc(N)c3/C=N/OCCCN(C)C)CC2)cc1 [Example 4, (4-Isopropoxy-phenyl)-carbamic acid 1-{6-amino-5-[(3-dimethylamino-propoxyimino)-methyl]-pyrimidin-4-yl}-piperidin-4-yl ester] |
| 6.52 | CO/N=C/c1c(N)ncnc1N1CCC(CC(=O)Nc2ccc(C(C)C)cc2)C1 (stereo not shown) [Example 6, 2-{1-[6-Amino-5-(methoxyimino-methyl)-pyrimidin-4-yl]-pyrrolidin-3-yl}-N-(4-isopropyl-phenyl)-acetamide] |
| 4.49 | CO/N=C/c1c(N)ncnc1N1CCC(NC(=O)Nc2ccc(N3CCOCC3)cc2)C1 (stereo not shown) [Example 10, 1-{1-[6-Amino-5-(methoxyimino-methyl)-pyrimidin-4-yl]-pyrrolidin-3-yl}-3-(4-morpholin-4-yl-phenyl)-urea] |
| 5.13 | CO/N=C/c1c(N)ncnc1N1CCC(NC(=O)Cc2ccc(C(C)C)cc2)CC1 [Example 16, N-{1-[6-Amino-5-(methoxyimino-methyl)-pyrimidin-4-yl]-piperidin-4-yl}-2-(4-isopropyl-phenyl)-acetamide] |

molecular target: T2, FLT ligand-induced wild-type FLT3 phosphorylation in Baf3 FLT3 cells (Homo sapiens, UniProt P36888); experiment: Cell-Based FLT3 Receptor Elisa (Baf3 FLT3 cells); details: 1 hour compound incubation, 100 ng/mL Flt ligand, uncertainty ±20%
T2 construct: host or cells: Baf3 (murine B cell lymphoma line)
T2 sequence (P36888 27-993): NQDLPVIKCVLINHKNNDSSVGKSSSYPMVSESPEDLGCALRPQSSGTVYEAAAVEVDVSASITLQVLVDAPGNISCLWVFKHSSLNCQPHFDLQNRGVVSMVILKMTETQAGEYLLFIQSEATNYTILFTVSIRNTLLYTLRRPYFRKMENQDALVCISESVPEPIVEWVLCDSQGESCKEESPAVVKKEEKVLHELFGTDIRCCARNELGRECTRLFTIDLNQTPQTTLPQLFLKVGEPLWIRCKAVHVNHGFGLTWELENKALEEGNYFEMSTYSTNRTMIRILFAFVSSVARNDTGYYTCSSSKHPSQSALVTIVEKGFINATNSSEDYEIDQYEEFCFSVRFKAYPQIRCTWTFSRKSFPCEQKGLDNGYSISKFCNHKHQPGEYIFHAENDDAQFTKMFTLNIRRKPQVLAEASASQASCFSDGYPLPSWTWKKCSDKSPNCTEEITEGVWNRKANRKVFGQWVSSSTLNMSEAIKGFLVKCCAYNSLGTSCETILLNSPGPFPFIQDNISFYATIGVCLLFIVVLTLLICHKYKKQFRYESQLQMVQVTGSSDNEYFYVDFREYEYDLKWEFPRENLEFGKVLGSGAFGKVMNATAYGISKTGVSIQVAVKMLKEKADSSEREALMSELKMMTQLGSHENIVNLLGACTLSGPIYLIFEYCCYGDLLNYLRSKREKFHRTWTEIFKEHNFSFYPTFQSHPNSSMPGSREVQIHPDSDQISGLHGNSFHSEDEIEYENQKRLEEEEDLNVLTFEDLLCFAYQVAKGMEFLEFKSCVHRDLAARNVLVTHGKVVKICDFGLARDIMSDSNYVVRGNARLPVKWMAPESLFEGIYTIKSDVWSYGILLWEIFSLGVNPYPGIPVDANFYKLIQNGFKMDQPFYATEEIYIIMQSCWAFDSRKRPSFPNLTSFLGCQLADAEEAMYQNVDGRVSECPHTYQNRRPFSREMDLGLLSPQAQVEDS
Protocol: Specific cellular inhibition of FLT ligand-induced wild-type FLT3 phosphorylation was measured in the following manner: Baf3 FLT3 cells overexpressing the FLT3 receptor were obtained from Dr. Michael Heinrich (Oregon Health and Sciences University). The Baf3 FLT3 cell lines were created by stable transfection of parental Baf3 cells (a murine B cell lymphoma line dependent on the cytokine IL-3 for growth) with wild-type FLT3. Cells were selected for their ability to grow in the absence of IL-3 and in the presence of FLT3 ligand.
Baf3 cells were maintained in RPMI 1640 with 10% FBS, penn/strep and 10 ng/ml FLT ligand at 37° C., 5% CO2. To measure direct inhibition of the wild-type FLT3 receptor activity and phosphorylation a sandwich ELISA method was developed similar to those developed for other RTKs (3,4). 200 μL of Baf3FLT3 cells (1×10^6/mL) were plated in 96 well dishes in RPMI 1640 with 0.5% serum and 0.01 ng/mL IL-3 for 16 hours prior to 1 hour compound or DMSO vehicle incubation. Cells were treated with 100 ng/mL Flt ligand (R&D Systems Cat# 308-FK) for 10 min. at 37° C. Cells were pelleted, washed and lysed in 100 ul lysis buffer (50 mM Hepes, 150 mM NaCl, 10% Glycerol, 1% Triton —X-100, 10 mM NaF, 1 mM EDTA, 1.5 mM MgCl2, 10 mM NaPyrophosphate) supplemented with phosphatase (Sigma Cat# P2850) and protease inhibitors (Sigma Cat #P8340). […]

| pIC50 | SMILES |
| --- | --- |
| 6.46 | CC(C)Oc1ccc(NC(=O)OC2CCN(c3ncnc(N)c3/C=N/OCCCN(C)C)CC2)cc1 [Example 4, (4-Isopropoxy-phenyl)-carbamic acid 1-{6-amino-5-[(3-dimethylamino-propoxyimino)-methyl]-pyrimidin-4-yl}-piperidin-4-yl ester] |

molecular target: T3, isolated kinase domain of the human c-kit receptor (Homo sapiens, UniProt P10721); experiment: c-Kit Fluorescence Polarization Kinase Assay; format: biochemical; details: FP assay, 50 uM ATP, 1 nM c-kit; uncertainty ±10%
T3 construct: isolated kinase domain of the human c-kit receptor; purchased ProQinase lot SP005
Protocol: The compounds of the present invention are also specific inhibitors of c-Kit. Selection of preferred compounds of Formula I for use as c-Kit inhibitors was performed in the following manner using an in vitro kinase assay to measure inhibition of the isolated kinase domain of the human c-kit receptor in a fluorescence polarization (FP) protocol. The c-kit assay utilized the fluorescein-labeled phosphopeptide and the anti-phosphotyrosine antibody included in the Panvera Phospho-Tyrosine Kinase Kit (Green) supplied by Invitrogen. When c-kit phosphorylated the poly Glu4Tyr, the fluorescein-labeled phosphopeptide was displaced from the anti-phosphotyrosine antibody by the phosphorylated poly Glu4Tyr, thus decreasing the FP value. The c-kit kinase reaction was incubated at room temperature for 45 minutes under the following conditions: 1 nM c-kit (ProQinase, lot SP005), 100 ug/mL poly Glu4Tyr, 50 uM ATP, 5 mM MgCl2, 1 mM DTT, 0.01% Tween-20, 1% DMSO or compound in […], pH 7.5. The kinase reaction was stopped with the addition of EDTA. The fluorescein-labeled phosphopeptide and the anti-phosphotyrosine antibody were added and incubated for 30 minutes at room temperature and fluorescence polarization was read. Data points were an average of triplicate samples. […]

T3 sequence (P10721 589-937 limits assumed): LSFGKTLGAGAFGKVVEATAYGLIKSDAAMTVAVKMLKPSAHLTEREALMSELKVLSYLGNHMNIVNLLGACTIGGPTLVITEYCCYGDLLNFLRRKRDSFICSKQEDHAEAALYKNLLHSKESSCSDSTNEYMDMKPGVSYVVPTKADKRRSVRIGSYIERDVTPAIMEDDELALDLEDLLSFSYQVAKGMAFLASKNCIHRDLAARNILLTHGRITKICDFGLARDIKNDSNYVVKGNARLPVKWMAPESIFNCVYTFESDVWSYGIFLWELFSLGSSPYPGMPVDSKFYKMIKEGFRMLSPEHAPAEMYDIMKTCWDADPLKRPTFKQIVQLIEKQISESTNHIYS

| pIC50 | SMILES |
| --- | --- |
| 6.42 | CCO/N=C/c1c(N)ncnc1N1CCC(OC(=O)Nc2ccc(OC(C)C)cc2)CC1 [Example 2, (4-Isopropoxy-phenyl)-carbamic acid 1-[6-amino-5-(ethoxyimino-methyl)-pyrimidin-4-yl]-piperidin-4-yl ester] |
| 7.80 | CO/N=C/c1c(N)ncnc1N1CCC(CC(=O)Nc2ccc(C(C)C)cc2)C1 (stereo not shown) [Example 6, 2-{1-[6-Amino-5-(methoxyimino-methyl)-pyrimidin-4-yl]-pyrrolidin-3-yl}-N-(4-isopropyl-phenyl)-acetamide] |
